{"source": "patent US11021686B2", "about": "“In vitro production of cholangiocytes” (CAMBRIDGE ENTERPRISE LIMITED, priority 2015, dated 2021)", "key": {"CLC organoids": {"test_system": "CLC organoids", "test": "Measurement of intracellular calcium levels (Fluo-4) in CLC organoids", "format": "cell-based, human", "conditions": "1 μM Acetylcholine or 30 μM ATP", "description": "Intracellular calcium signaling, regulated by stimuli such as acetylcholine and ATP constitutes a key second messenger for cholangiocytes (18). CLC organoids were incubated with 25 μM of the calcium indicator Fluo-4 AM (Life technologies) for 60 minutes at 37° C. and washed 3 times with William's E medium. Fresh William's E medium with supplements was added following the third wash. The organoids were stimulated with 1 μM of Acetylcholine (Sigma-Aldrich) or 30 μM of ATP (Sigma-Aldrich), while time lapse images were taken. Each measurement was repeated in triplicate. To calculate the number of cells responding to stimulation, the number of cells loaded with Fluo-4 AM was counted by 2 different researchers prior to the start of the experiment. Following stimulation with ATP or acetylcholine the number of responding cells (increase in fluorescence) was also counted and responsiveness was expressed as the ratio of responding cells over the total number of cells loaded with Fluo-4 AM. The statistical approach for smoothing the data and plotting bands for the confidence limits please see ‘Statistical analyses’."}, "hESC-Chol": {"test_system": "hESC-Chol", "conditions": "Dianat et al (6); cited from earlier work"}}, "note": "Entries after “also recorded” stand apart in the source; their conditions may differ."}
{"smiles": "Nc1ncnc2c1ncn2[C@@H]1O[C@H](COP(=O)(O)OP(=O)(O)OP(=O)(O)O)[C@@H](O)[C@H]1O", "note": "[ATP]", "values": [{"measurement": "intracellular calcium levels", "setting": "CLC organoids; CLC organoids loaded with Fluo-4", "value": "increasing intracellular calcium levels; also recorded: an increase in intracellular calcium levels"}, {"measurement": "responsiveness (responding cells over total cells loaded with Fluo-4 AM)", "setting": "CLC organoids; CLCs", "value": 95, "unit": "%"}, {"measurement": "responsiveness of hESC-Chol", "setting": "hESC-Chol", "value": 70, "unit": "%"}]}
